Experimental data from ChEMBL document CHEMBL5506042, “Discovery of the Clinical Candidate IDOR-1117-2520: A Potent and Selective Antagonist of CCR6 for Autoimmune Diseases” (J Med Chem, 2024).
Values after ≈ are worked out from the molar mass of the structure shown.

Experiments:
Cytochrome P450 2D6 = Cytochrome P450 2D6 (Homo sapiens, UniProt P10635); assay: Inhibition of CYP2D6 (unknown origin); format: ADME
[1] = AUC in Wistar rat at 3 mg/kg, iv; format: ADME, organism-based; conditions: in vivo
[2] = molecular target: T1, Solute carrier organic anion transporter family member 1B3 (Homo sapiens, UniProt Q9NPD5); assay: Inhibition of OATP1B3 (unknown origin)
T1 sequence (Q9NPD5 whole entry): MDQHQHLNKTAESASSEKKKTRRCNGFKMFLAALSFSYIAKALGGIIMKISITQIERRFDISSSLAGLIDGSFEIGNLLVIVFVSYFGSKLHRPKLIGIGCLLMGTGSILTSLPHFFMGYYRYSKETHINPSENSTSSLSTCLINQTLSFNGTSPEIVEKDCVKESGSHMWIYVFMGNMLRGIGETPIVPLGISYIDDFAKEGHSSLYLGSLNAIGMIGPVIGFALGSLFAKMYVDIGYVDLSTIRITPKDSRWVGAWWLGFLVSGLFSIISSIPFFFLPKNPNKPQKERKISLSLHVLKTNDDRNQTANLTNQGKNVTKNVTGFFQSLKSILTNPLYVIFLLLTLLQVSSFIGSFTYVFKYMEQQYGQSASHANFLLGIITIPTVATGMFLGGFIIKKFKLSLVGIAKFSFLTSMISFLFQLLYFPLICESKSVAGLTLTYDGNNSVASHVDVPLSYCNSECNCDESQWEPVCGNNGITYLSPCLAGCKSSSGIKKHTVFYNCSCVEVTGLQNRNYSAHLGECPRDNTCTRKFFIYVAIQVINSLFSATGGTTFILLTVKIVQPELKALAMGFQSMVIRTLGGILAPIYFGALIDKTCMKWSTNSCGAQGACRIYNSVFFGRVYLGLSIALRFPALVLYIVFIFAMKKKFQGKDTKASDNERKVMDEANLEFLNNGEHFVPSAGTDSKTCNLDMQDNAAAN

[3] = Intrinsic clearance in human hepatocytes measured per million cells; format: ADME, cell-based, Hepatocyte; conditions: read-out: CLH
[4] = Oral bioavailability in Beagle dog at 10 mg/kg; format: ADME, organism-based, Canis lupus familiaris; conditions: in vivo
[5] = Cmax in Wistar rat at 100 mg/kg, po; format: ADME, organism-based; conditions: in vivo
[6] = Clearance in Beagle dog at 1 mg/kg, iv; format: ADME, organism-based, Canis lupus familiaris; conditions: in vivo
Cytochrome P450 3A4 [7] = molecular target: T2, Cytochrome P450 3A4 (Homo sapiens, UniProt P08684); assay: Induction of CYP3A4 (unknown origin); format: ADME
T2 sequence (P08684 whole entry): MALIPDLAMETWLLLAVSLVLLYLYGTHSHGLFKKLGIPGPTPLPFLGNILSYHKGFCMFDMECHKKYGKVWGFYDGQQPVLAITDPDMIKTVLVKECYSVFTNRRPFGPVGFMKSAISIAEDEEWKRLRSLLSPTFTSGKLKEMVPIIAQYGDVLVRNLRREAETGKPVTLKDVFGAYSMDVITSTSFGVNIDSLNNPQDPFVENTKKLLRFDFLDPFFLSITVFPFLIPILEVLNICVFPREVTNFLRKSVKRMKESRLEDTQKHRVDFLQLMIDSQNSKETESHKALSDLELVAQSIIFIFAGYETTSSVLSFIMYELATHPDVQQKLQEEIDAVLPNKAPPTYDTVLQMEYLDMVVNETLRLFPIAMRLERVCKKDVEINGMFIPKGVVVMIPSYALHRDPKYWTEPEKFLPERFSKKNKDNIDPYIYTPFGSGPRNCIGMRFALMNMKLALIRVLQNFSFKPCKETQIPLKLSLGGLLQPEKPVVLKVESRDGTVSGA

Cytochrome P450 3A4 [8] = molecular target: T2, Cytochrome P450 3A4; assay: Time dependent inhibition of CYP3A4 (unknown origin); format: ADME
[9] = Fraction unbound in human plasma at 1 uM by rapid equilibrium dialysis based LC-MS/MS analysis; format: ADME, cell-free
Cytochrome P450 2C9 = Cytochrome P450 2C9 (Homo sapiens, UniProt P11712); assay: Inhibition of CYP2C9 (unknown origin); format: ADME
Cytochrome P450 2C9, sequence (P11712 whole entry): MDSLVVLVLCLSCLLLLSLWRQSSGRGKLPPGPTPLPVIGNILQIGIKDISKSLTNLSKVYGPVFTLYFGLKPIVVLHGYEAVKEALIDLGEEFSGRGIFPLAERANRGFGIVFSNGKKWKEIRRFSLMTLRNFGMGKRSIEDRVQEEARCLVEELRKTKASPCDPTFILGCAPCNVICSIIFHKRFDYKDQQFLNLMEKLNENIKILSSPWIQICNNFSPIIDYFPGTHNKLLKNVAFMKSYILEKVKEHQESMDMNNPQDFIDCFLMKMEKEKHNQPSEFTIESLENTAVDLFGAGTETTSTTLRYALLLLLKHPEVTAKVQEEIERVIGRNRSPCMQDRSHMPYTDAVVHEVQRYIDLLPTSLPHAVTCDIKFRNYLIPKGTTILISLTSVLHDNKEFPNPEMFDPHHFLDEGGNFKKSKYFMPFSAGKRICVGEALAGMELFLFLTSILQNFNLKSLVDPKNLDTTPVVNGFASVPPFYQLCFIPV

[10] = AUC in Beagle dog at 10 mg/kg, po; format: ADME, organism-based, Canis lupus familiaris; conditions: in vivo
[11] = Intrinsic clearance in human liver microsomes at 1 uM measured for 15 mins in presence of NADPH regenerating system measured per mg protein by LC-MS/MS analysis; format: ADME, Microsome; conditions: read-out: CLH
[12] = AUC in Beagle dog at 3 mg/kg, po; format: ADME, organism-based, Canis lupus familiaris; conditions: in vivo
[13] = Solubility of the compound in aqueous medium at pH <[…]; format: physicochemical
[14] = Oral bioavailability in Wistar rat at 100 mg/kg; format: ADME, organism-based; conditions: in vivo
[15] = Fraction unbound in dog plasma at 1 uM by rapid equilibrium dialysis based LC-MS/MS analysis; format: ADME, cell-free, Canis lupus familiaris
[16] = Tmax in Beagle dog at 3 mg/kg, po; format: ADME, organism-based, Canis lupus familiaris; conditions: in vivo
[17] = Intrinsic clearance in human hepatocytes in presence of ABT measured per million cells; format: ADME, cell-based, Hepatocyte; conditions: with ABT, read-out: CLH
[18] = Volume of distribution at steady state in Wistar rat at 3 mg/kg, iv; format: ADME, organism-based; conditions: in vivo, read-out: Vdss
[19] = Half life in Wistar rat at 3 mg/kg, iv; format: ADME, organism-based; conditions: in vivo
[20] = Cmax in Beagle dog at 3 mg/kg, po; format: ADME, organism-based, Canis lupus familiaris; conditions: in vivo
[21] = Solubility of the compound at pH <[…] at 37 degC; format: physicochemical
[22] = Intrinsic solubility of the compound at pH >11.5 using amorphous form of sample; format: physicochemical; conditions: read-out: Intrinsic_solubility
[23] = Oral bioavailability in Beagle dog at 3 mg/kg; format: ADME, organism-based, Canis lupus familiaris; conditions: in vivo
[24] = Tmax in Beagle dog at 1 mg/kg, iv; format: ADME, organism-based, Canis lupus familiaris; conditions: in vivo
[25] = Volume of distribution at steady state in Beagle dog at 1 mg/kg, iv; format: ADME, organism-based, Canis lupus familiaris; conditions: in vivo, read-out: Vdss
[26] = AUC in Beagle dog at 1 mg/kg, iv; format: ADME, organism-based, Canis lupus familiaris; conditions: in vivo
[27] = molecular target: ATP-dependent translocase ABCB1 (Homo sapiens, UniProt P08183); assay: Inhibition of human MDR1
ATP-dependent translocase ABCB1, sequence (P08183 whole entry): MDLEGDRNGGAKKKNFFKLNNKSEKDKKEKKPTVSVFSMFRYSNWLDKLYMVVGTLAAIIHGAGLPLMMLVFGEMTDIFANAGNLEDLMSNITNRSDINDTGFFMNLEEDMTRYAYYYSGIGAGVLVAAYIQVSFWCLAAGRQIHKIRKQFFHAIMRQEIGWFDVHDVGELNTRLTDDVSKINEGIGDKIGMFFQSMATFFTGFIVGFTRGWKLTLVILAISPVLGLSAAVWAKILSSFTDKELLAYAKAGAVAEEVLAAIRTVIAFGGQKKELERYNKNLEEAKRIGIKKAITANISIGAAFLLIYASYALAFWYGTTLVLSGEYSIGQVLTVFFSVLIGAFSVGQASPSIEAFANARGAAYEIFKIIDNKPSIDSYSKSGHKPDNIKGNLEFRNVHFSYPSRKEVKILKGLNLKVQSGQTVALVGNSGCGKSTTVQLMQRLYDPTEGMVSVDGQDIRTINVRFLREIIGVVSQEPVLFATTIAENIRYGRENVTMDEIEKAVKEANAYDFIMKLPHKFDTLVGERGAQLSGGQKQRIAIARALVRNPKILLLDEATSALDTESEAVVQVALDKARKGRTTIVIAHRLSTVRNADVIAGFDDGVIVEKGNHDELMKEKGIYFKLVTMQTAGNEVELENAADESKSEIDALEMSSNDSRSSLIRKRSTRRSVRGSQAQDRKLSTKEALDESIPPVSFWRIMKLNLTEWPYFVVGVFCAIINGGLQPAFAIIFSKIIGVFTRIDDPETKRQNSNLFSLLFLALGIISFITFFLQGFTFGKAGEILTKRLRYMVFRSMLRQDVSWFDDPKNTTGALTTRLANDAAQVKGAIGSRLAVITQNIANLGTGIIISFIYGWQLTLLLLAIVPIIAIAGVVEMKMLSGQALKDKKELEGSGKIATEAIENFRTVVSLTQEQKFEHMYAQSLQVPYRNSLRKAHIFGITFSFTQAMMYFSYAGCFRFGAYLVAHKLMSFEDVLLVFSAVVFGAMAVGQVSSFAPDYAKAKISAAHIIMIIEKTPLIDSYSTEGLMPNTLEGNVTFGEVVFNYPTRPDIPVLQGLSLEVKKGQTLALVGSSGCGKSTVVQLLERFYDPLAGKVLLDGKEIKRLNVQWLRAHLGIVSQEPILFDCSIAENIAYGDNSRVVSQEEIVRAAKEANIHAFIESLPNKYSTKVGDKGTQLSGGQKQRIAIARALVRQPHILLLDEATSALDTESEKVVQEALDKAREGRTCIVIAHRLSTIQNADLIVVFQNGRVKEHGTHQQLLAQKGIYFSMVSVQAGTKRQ

[28] = Tmax in Wistar rat at 100 mg/kg, po; format: ADME, organism-based; conditions: in vivo
[29] = Half life in Beagle dog at 1 mg/kg, iv; format: ADME, organism-based, Canis lupus familiaris; conditions: in vivo
[30] = Clearance in Wistar rat at 3 mg/kg, iv; format: ADME, organism-based; conditions: in vivo
[31] = molecular target: T3, Solute carrier organic anion transporter family member 1B1 (Homo sapiens, UniProt Q9Y6L6); assay: Inhibition of OATP1B1 (unknown origin)
T3 sequence (Q9Y6L6 whole entry): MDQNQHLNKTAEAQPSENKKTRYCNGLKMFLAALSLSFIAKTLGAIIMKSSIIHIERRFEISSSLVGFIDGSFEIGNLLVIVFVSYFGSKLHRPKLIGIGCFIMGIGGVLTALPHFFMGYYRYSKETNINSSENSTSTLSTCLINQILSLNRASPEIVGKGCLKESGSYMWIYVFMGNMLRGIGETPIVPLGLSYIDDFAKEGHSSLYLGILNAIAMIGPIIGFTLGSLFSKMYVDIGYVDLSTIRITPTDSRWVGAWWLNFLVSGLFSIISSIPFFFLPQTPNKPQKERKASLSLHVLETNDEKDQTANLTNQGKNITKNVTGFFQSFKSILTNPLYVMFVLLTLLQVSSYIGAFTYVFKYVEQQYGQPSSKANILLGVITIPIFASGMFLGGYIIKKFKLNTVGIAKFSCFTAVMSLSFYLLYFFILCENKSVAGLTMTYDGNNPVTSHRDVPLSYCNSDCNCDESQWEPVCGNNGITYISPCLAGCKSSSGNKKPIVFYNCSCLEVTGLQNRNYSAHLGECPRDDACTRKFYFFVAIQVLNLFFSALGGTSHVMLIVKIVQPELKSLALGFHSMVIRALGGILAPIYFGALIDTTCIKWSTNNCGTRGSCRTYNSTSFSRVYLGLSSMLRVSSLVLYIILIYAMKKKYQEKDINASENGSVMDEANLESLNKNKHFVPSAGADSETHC

HepaRG = assay: Cytotoxicity against human HepaRG cells assessed as leakage of intracellular LDH at 100 uM incubated for 24 hrs by spectrophotometry; format: toxicity, cell-based
[32] = Intrinsic clearance in dog liver microsomes at 1 uM measured for 15 mins in presence of NADPH regenerating system by LC-MS/MS analysis; format: ADME, Canis lupus familiaris, Microsome; conditions: read-out: CLH
Cytochrome P450 3A4 [33] = molecular target: T2, Cytochrome P450 3A4; assay: Inhibition of CYP3A4 (unknown origin); format: ADME
[34] = Apparent permeability across apical to basolateral side in dog MDCK-II cells; format: ADME, cell-based, Canis lupus familiaris
[35] = AUC in Wistar rat at 100 mg/kg, po; format: ADME, organism-based; conditions: in vivo
[36] = Cmax in Beagle dog at 1 mg/kg, iv; format: ADME, organism-based, Canis lupus familiaris; conditions: in vivo

Cytochrome P450 2D6, sequence (P10635 whole entry): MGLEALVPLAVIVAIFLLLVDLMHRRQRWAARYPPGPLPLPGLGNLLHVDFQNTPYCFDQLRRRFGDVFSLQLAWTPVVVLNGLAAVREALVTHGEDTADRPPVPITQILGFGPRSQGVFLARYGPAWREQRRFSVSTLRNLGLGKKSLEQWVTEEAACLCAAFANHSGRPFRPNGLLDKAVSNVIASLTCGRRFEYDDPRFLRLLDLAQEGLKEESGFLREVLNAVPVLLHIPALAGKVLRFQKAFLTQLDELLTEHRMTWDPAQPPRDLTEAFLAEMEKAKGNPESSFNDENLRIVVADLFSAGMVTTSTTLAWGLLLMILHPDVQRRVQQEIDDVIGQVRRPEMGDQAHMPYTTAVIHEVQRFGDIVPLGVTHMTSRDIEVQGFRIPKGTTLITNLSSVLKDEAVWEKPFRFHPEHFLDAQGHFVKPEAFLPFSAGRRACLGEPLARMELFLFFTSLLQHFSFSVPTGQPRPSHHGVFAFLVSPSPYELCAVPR

CC(C)c1ccc([C@](O)(c2cccc(-c3noc(C(C)(C)O)n3)c2)C2(C)CN(C)C2)cc1
IC50 (Cytochrome P450 2D6): 0.15 µM
AUC [1]: 443 ng·h/mL
IC50 [2]: > 50 µM
hepatocyte CLint [3]: 3.6 µL/min/1e6 cells
bioavailability [4]: 95%
Cmax [5]: 822 ng/mL
clearance [6]: 38 mL/min/kg
Activity (Cytochrome P450 3A4 [7]): Not Active
TDI (Cytochrome P450 3A4 [8]): Not Active
fraction unbound at 1 µM [9]: 0.35
IC50 (Cytochrome P450 2C9): > 50 µM
AUC [10]: 4160 ng·h/mL
microsomal CLint at […], 1 µM [11]: < 10 µL/min/mg
AUC [12]: 332 ng·h/mL
solubility [13]: > 100000 µg/mL
bioavailability [14]: 19%
fraction unbound at 1 µM [15]: 0.33
Tmax [16]: 48 min
hepatocyte CLint [17]: < 2 µL/min/1e6 cells
Vd [18]: 23 L/kg
half-life [19]: 216 min
Cmax [20]: 956 ng/mL
solubility [21]: > 10000 µg/mL
solubility [22]: 100 µg/mL (≈ 0.23 mM)
bioavailability [23]: 25%
Tmax [24]: 48 min
Vd [25]: 11 L/kg
AUC [26]: 436 ng·h/mL
IC50 [27]: 19 µM
Tmax [28]: 18 min
half-life [29]: 282 min
clearance [30]: 110 mL/min/kg
IC50 [31]: > 50 µM
Activity (HepaRG): Non-Toxic
microsomal CLint at […], 1 µM [32]: 17 µL/min/mg
IC50 (Cytochrome P450 3A4 [33]): > 50 µM
Papp A→B [34]: 0.3 ×10⁻⁶ cm/s
AUC [35]: 2770 ng·h/mL
Cmax [36]: 103 ng/mL
